In patent US7196110B2, “N-substituted tricyclic 3-aminopyrazoles as inhibitors for the treatment of cell proliferative disorders” (Janssen Phamaceutica N.V., priority 2002, dated 2007):

Experiments:
[1] = system: PDGF-BB-stimulated angiogenesis; test: Anti-angiogenesis matrigel mouse model (MM assay) supplemented with PDGF-BB, plug hemoglobin content; assay type: in vivo, mice (C57BL/6J); conditions: mice
Source text: Angiogenesis inhibitory activity of a compound of this invention can be measured in vivo using the matrigel mouse model (MM Assay) of angiogenesis (Passaniti et al., Laboratory Investigation, 67: 519–528, 1992). The matrigel mouse assay is a well-established method to quantify angiogenesis (see e g. Capogrossi et al., Methods in Molecular Medicine, Vascular Disease: Molecular Biology and Gene Therapy Protocols, Edited by: A. H. Baker, Humana Press Inc., Totowa, N.J., 1999). The model has been characterized extensively for its relevance as a mimic of the process of angiogenesis and has been used extensively to evaluate in vivo both potential angiogenic and anti-angiogenic activity of numerous compounds/agents. […] All procedures involving animals were conducted in an animal facility fully accredited by the American Association for Assessment and Accreditation of Laboratory Animal Care (AAALAC) and in accordance with The Guide for the Care and Use of Laboratory Animals (NIH). […]
Normal male mice (C57BL/6J) were injected subcutaneously (ventrally below rib cage at abdominal midline) with 1.0 mL of chilled matrigel supplemented with a single purified pro-angiogenic growth factor (100–500 ng/mL of either rhPDGF-BB (supra), recombinant human basic fibroblast growth factor, rhFGF-basic (R&D System Cat. No 233-FB) or recombinant human vascular endothelial growth factor, rhVEGF (PanVera Cat. No R2951) and heparin (35 U/mL). Compounds are formulated as 0.1% suspensions (1 mg/mL final concentration) in 0.5% methylcellulose. Vehicle or test compounds (8–10 mice per treatment group) were administered orally by gavage beginning two hours after matrigel injections. […] Supernatants were removed and the hemoglobin concentration in the plug extract was measured spectrophotometrically using the Drabkin's assay method (Drabkin's reagent kit 525-A; SIGMA) and read on a Beckman DU 7400 Spectrophotometer. […] Group differences were analyzed statistically using the Mann-Whitney Test, with a p-value of 0.05 or less considered statistically significant. […]

[2] = system: LoVo; test: Flow cytometry and trypan blue exclusion cell counting, LoVo; assay type: cell-based, human
[3] = system: DU145 (prostate cancer); test: Clonogenicity assay, compound in combination with irradiation, DU145; assay type: cell-based, human
Experimental: Radiotherapy is a major therapeutic modality in treating many types of cancers including human prostate and ovarian cancers. The anti-proliferative activity of compounds within the scope of the invention was tested in combination with irradiation treatment.
Cells DU145 (prostate cancer) and MDAH2774 (ovarian cancer) were obtained from ATCC; growth media MEM medium (Mediatech, Herndon, Va.) was supplemented with 8% FBS, 5 U/ml penicillin and 50 μg/ml Streptomycin (Hyclone, Logan, Utah), 2 mM L-glutamine (Hyclone, Logan, Utah), 25 mM HEPES (Hyclone, Logan, Utah); McCoy's 5A medium (Mediatech, Herndon, Va.) was supplemented with 8% FBS, 50 U/ml penicillin and 50 μg/ml-Strep (Hyclone, Logan, Utah) and Glutamine 2 mM L-glutamine (Hyclone, Logan, Utah), ^137CS γ-source was a Gammacell 1000 Elite irradiator (MDS Nordion, Kanata, Ontario, Canada); DMSO; 1× PBS; Methanol; 0.25% Crystal Violet, and 60 mm tissue culture dishes.
DU145 or MDAH2774 cells at desired cell number were plated in early log phase on 60 mm dishes in MEM medium supplemented with 8% FBS, Penicillin, Streptomycin, L-glutamine, or McCoys medium supplemented with 8% FBS, Penicillin, Streptomycin and Glutamine, respectively. Cells were plated in triplicate. […] The final concentrations of the compound in the cell media ranged from 1 to 100 nM. After 24 h incubation with the test compound plates were split in two groups of equal size. The plates in the first group were irradiated with 7.3 Gy (plates containing DU145 cells) or 5.4 Gy (plates containing MDAH2774 cells) using a ^137Cs γ-source (dose rate 3.32 Gy/min). The second group of plates were treated identically but not irradiated. Cells were incubated for an additional 24 hours in medium containing test compound. Then, the cells were replenished with fresh compound-free identical medium and allowed to grow for an additional 11 days. Cells were then fixed with methanol, stained with 0.25% crystal violet, and the clones containing more than 50 cells were counted.
The activity appeared to be concentration-dependent with more dramatic effects achieved at 100 nM compound with radiation in either cell line.

[4] = system: H460; test: Flow cytometry and trypan blue exclusion cell counting, H460; assay type: cell-based, human

Structure (SMILES)	% Inhibition @ 30 mg/kg po (angiogenesis, MM assay supplemented with PDGF-BB) [1]	cell cycle / growth effect in LoVo cells [2]	colony formation inhibition with versus without radiation, DU145 ([3]; 7.3 Gy, compound 1 to 100 nM)	No. of DU145 Clones (average of three plates) ([3]; W/o Radiation, 200 cells initially plated, compound 1 nM)	No. of DU145 Clones (average of three plates) ([3]; W/o Radiation, 200 cells initially plated, compound 3 nM)	No. of DU145 Clones (average of three plates) ([3]; W/o Radiation, 200 cells initially plated, compound 10 nM)	No. of DU145 Clones (average of three plates) ([3]; W/o Radiation, 200 cells initially plated, compound 30 nM)	No. of DU145 Clones (average of three plates) ([3]; W/o Radiation, 200 cells initially plated, compound 100 nM)	concentration from which marked inhibitory activity against colony formation was shown, DU145 ([3]; in the presence or absence of radiation (7.3 Gy))	No. of DU145 Clones (average of three plates) ([3]; w/Radiation (7.3 Gy), 1200 cells initially plated, compound 1 nM)	No. of DU145 Clones (average of three plates) ([3]; w/Radiation (7.3 Gy), 1200 cells initially plated, compound 3 nM)	No. of DU145 Clones (average of three plates) ([3]; w/Radiation (7.3 Gy), 1200 cells initially plated, compound 10 nM)	No. of DU145 Clones (average of three plates) ([3]; w/Radiation (7.3 Gy), 1200 cells initially plated, compound 30 nM)	No. of DU145 Clones (average of three plates) ([3]; w/Radiation (7.3 Gy), 1200 cells initially plated, compound 100 nM)	cell cycle / growth effect in H460 cells [4]
COc1cc2c(cc1OC)-c1n[nH]c(Nc3ccccc3F)c1C2 [Compound 12, (6,7-Dimethoxy-2,4-dihydro-indeno[1,2-c]pyrazol-3-yl)-(2-fluoro-phenyl)-amine]	45%	–	–	–	–	–	–	–	–	–	–	–	–	–	–
COc1cc2c(cc1OC)-c1n[nH]c(Nc3cccc(F)c3)c1C2 [Compound 14, (3-Fluoro-phenyl)-(6,7-dimethoxy-2,4-dihydro-indeno[1,2-c]pyrazol-3-yl)-amine]	40%	blocked growth	the inhibitory effect was greater with radiation	118	108	111	100	22	≥ 30 nM	117	100	126	57	5	blocked growth
